Series [1] concerns myofibroblast formation. The note with it: Ajmal et al. (2003); cited from earlier work.
For series [2], the system named is blood clotting. The series can be described thus: Time required to induce blood clotting in vitro. The format is biochemical. Here is the method: Tests were conducted to compare the time required to induce blood clotting in vitro when different amounts of hemostatic agent is administered in the presence of TYRX (degradable mesh coated with P22-27.5 containing rifampin and minocycline), as shown in FIG. 23.
Tests were conducted to compare the time required for different hemostatic agents to induce blood clotting in vitro versus the time required to induce blood clotting in vitro when no hemostatic agent is administered. In particular, the time required to induce blood clotting was plotted for blood alone, TYRX, Surgicel, TYRX with 1.6 mg of TXA, 1.2 mg of TXA alone and TYRX with 200 mg of TXA. In this example, TYRX refers to a Glycoprene mesh that is coated with P22-27.5 (a polymer in the P22-X family) containing Rifampin and Minocycline.

Series [3] can be described thus: Stability of rifampin and minocycline in PBS with and without tranexamic acid. In kind it is physicochemical. The method, then: To determine the stability of active pharmaceutical ingredients, such as, for example, one or more of active pharmaceutical ingredients 26 when combined with a hemostatic agent, such as, for example, one or more of hemostatic agents 24, mixtures of rifampin and minocycline were prepared in phosphate-buffered saline (PBS) with and without tranexamic acid (TXA). The mixtures were tested both at room temperature (RT) (about 23° C.) and at 37° C.

Series [4] in a line: In vitro elution of rifampin and minocycline from p22-27.5 polymers with TXA in the release media. In kind it is physicochemical. The note with it: PBS pH 7.4 without TXA, with TXA 0.05 mg/mL or 5 mg/mL, over 25 hours. The source says:
To determine the elution of active pharmaceutical ingredients, such as, for example, one or more of active pharmaceutical ingredients 26 from a polymer, such as, for example, one of the polymers discussed herein, in vitro when the active pharmaceutical ingredients are combined with a hemostatic agent, such as, for example, one or more of hemostatic agents 24, in vitro elution of rifampin and minocycline from polymers in the p22-27.5 family containing different amounts of tranexamic acid was evaluated in a PBS buffer over 25 hours. B1=PBS pH 7.4; B2=PBS, pH 7.4+TXA (0.05 mg/mL); B3=PBS, pH 7.4+TXA (5 mg/mL).

On to `O=S(=O)([O-])CCS.[Na+]` [MESNA, sodium 2-mercaptoethane sulfonate], for which the myofibroblast formation entry in series [1] is given as “diminish myofibroblast formation”.

On to `NC[C@H]1CC[C@H](C(=O)O)CC1` [tranexamic acid], for which the Clotting time result in series [2] (higher amounts of TXA (1.6 mg TXA vs 200 mg of TXA) in the presence of TYRX) was “increased”. Further, the “time required to induce blood clotting” value in series [2] (in vitro, 1.2 mg of TXA alone) was “about 19 minutes”. The “effect on the stability of rifampin and minocycline” value in series [3] (RT and 37° C.) is “does not negatively affect the stability of rifampin and minocycline”.

Take `CO[C@H]1/C=C/O[C@@]2(C)Oc3c(C)c(O)c4c(O)c(c(/C=N/N5CCN(C)CC5)c(O)c4c3C2=O)NC(=O)/C(C)=C\C=C\[C@H](C)[C@H](O)[C@@H](C)[C@@H](O)[C@@H](C)[C@H](OC(C)=O)[C@@H]1C` [rifampin]: the “elution rate from p22-27.5 polymer” value in series [4] is listed as “not affected by the presence of TXA”. In series [3] (RT (about 23° C.) and 37° C., regardless of the temperature), the “percentage area of rifampin, mixtures with versus without tranexamic acid” value is “substantially the same”.

The values above are taken from patent US10939901B2, “Customizable anchorage devices and methods of use” (TYRX, Inc., priority 2016, dated 2021).
